This data set can be described thus: Ames assay (genotoxicity). In kind it is cell-based. The following applies: synthetic intermediates of the last three steps. (In the Ames test, an excess of revertant colonies over the control signals mutagenicity.)

Structures are written as SMILES.

Regarding `NC(=O)Nc1ccc(CCN2C(=O)CO[C@@H]2c2cn(-c3ccc(Br)cc3)nc2-c2ccc(F)cc2)cc1I` [Compound 9], the Ames assay result was “negative”.

In the case of `NC(=O)Nc1ccc(CCN2C(=O)CO[C@@H]2c2cn(-c3ccc(Br)cc3)nc2-c2ccc(F)cc2)cc1` [Compound 17], the Ames assay result is given as “negative”.

Source of the values: patent publication US12709610B2, “Preparation method for hepatitis B virus nucleocapsid inhibitor” (Shanghai Zhimeng Biopharma, Inc., priority 2021, dated 2026).
